Assay results reported in patent US20230103631A1, “PEPTIDES AS SELECTIVE GIP RECEPTOR AGONISTS” (Sanofi, priority 2020, published 2023).
*1 amine or outer side, *2 acyl side, *3 side chain or, on linkers, in order; H or OH if unused. Where a SMILES comes first, the peptide text is derived from it. Side-chain parts run from the residue outwards. [ ]: non-standard residue; d: D form. The star is where a group is joined. C18 diacid = O=C(O)CCCCCCCCCCCCCCCCC(=O)*; γGlu = O=C(O)[C@H](CCC(=O)[*:2])N[*:1]; AEEA = NCCOCCOCC(=O)O; Aib = CC(C)(N)C(=O)O; Sar = CNCC(=O)O

How the values were obtained:
physchem = assay type: physicochemical; conditions: for Soluble amount: 24 h, pH 7.4; for solubility at 24 h: pH 7.4, Soluble amount
Procedure, shortened: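 Peptide at 10 mg/ml (purity-corrected) in 100 mM phosphate pH 7.4, alone or with 2.7 mg/ml m-cresol; 1 h gentle agitation, then 24 h at 5 °C. Supernatant after 15 min at 2500 RCF quantified by UHPLC-UV against reference peptide, adjusted for extinction coefficients.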

[1] = biological target: human GLP-1 receptor (hGLP-1R) (Homo sapiens, UniProt P43220); assay: cAMP HTRF assay, HEK-293 cell line over-expressing human GLP-1 receptor; assay type: cell-based; conditions: HEK-293, cAMP, 0% HSA
Procedure, shortened: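 Thawed HEK-293 cells over-expressing human GLP-1R (5000 cells/well) in HBSS/20 mM HEPES buffer, with 0.1% HSA where stated, incubated with compound for 30 min at room temperature. Generated cAMP quantified by HTRF.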

[2] = Chemical stability assessment (relative purity loss by UHPLC-UV); assay type: physicochemical; conditions: Chemical stability buffer system A: 20 mM phosphate buffer pH 7.4
Procedure: Purity of a peptide batch was determined through UHPLC/MS prior to chemical stability measurement. The target concentration was […] pure compound. Solutions from solid samples were prepared in the following buffer systems with a concentration of ˜300 μM compound based on the previously determined % purity:
Chemical stability buffer system A) 20 mM phosphate buffer pH 7.4,
Chemical stability buffer system B) 8 mM phosphate buffer pH 7.4, 14 mg/ml propylene glycol, 5.5 mg/ml phenol
Chemical stability buffer system C) 100 mM phosphate buffer pH 7.4, 2.7 mg/ml m-cresol
Prepared solutions were filtered through […] pore size and filled into sterilized glass containers under laminar flow conditions.
Glass containers were stored for 28 days at 5 and 40° C. After this time, the samples were centrifuged for 15 min at 2500 RCF. Then 1.5 μl of the undiluted supernatant were analysed with UHPLC-UV.
The chemical stability was rated through the relative loss of purity calculated by the equation:
[(purity after 28 days at 5° C.)−(purity after 28 days at 40° C.)]/(purity after 28 days at 5° C.)]*100%
The purity is calculated as
[(peak area peptide)/(total peak area)]*100%
The analytical methods used were Analytical UHPLC Method B or C.
Peptide samples were prepared in Chemical stability buffer system A or B and stability was assessed as described in Methods.

[3] = Dynamic light scattering (DLS) for the assessment of physical stability; assay type: physicochemical; conditions: DLS buffer system A
Text: A monochromatic and coherent light beam (laser) is used to illuminate the liquid sample. Dynamic Light Scattering (DLS) measures light scattered from particles (1 nm≤radius≤1 μm) that undergo Brownian motion. This motion is induced by collisions between the particles and solvent molecules, that themselves are moving due to their thermal energy. The diffusional motion of the particles results in temporal fluctuations of the scattered light (R. Pecora, Dynamic Light Scattering: Applications of Photon Correlation Spectroscopy, Plenum Press, 1985).
The scattered light intensity fluctuations are recorded and transformed into an autocorrelation function. By fitting the autocorrelation curve to an exponential function, the diffusion coefficient D of the particles in solution can be derived. The diffusion coefficient is then used to calculate the hydrodynamic radius Rh (or apparent Stokes radius) through the Stokes-Einstein equation assuming spherical particles. This calculation is defined in ISO 13321 and ISO 22412 (International Standard ISO13321 Methods for Determination of Particle Size Distribution Part 8: Photon Correlation Spectroscopy, International Organisation for Standardisation (ISO) 1996; International Standard ISO22412 Particle Size Analysis—Dynamic Light Scattering, International Organisation for Standardisation, 2008).
In case of polydisperse samples, the autocorrelation function is the sum of the exponential decays corresponding to each of the species. The temporal fluctuations of the scattered light can then be used to determine the size distribution profile of the particle fraction or family. The first order result is an intensity distribution of scattered light as a function of the particle size. The intensity distribution is naturally weighted according to the scattering intensity of each particle fraction or family. For biological materials or polymers, the particle scattering intensity is proportional to the square of the molecular weight. Thus, small amount of aggregates/agglomerates or presence or a larger particle species can dominate the intensity distribution. However, this distribution can be used as a sensitive detector for the presence of large material in the sample.
The DLS technique produces distributions with inherent peak broadening. The polydispersity index % Pd is a measure of the width of the particle size distribution and is calculated by standard methods described in ISO13321 and ISO22412 [International Standard ISO13321 Methods for Determination of Particle Size Distribution Part 8: Photon Correlation Spectroscopy, International Organisation for Standardisation (ISO) 1996; International Standard ISO22412 Particle Size Analysis—Dynamic Light Scattering, International Organisation for Standardisation (ISO) 2008].
Solutions from solid samples were prepared in buffer systems (see below) with a target concentration of 300 μM compound based on the previously determined % purity.
DLS buffer system A) 20 mM phosphate buffer pH 7.4
DLS buffer system B) 8 mM phosphate buffer pH 7.4, 14 mg/ml propylene glycol, 5.5 mg/ml phenol
DLS buffer system C) 100 mM phosphate buffer pH 7.4, 2.7 mg/ml m-cresol Solutions were filtered through 0.22 μm pore size and filled into sterilized glass containers under laminar flow conditions. For every peptide solution, the apparent hydrodynamic radius (Rh), the corresponding Scattering Intensity (I), and the Mass Contribution (M) were determined as an average over 3-6 replicates from the intensity distribution of the scattered light averaging only high-quality measurements. Relative standard deviations (RSD) for these parameters were calculated from the same number of replicates. […]

Chain of human GLP-1 receptor (hGLP-1R) (P43220 24-463): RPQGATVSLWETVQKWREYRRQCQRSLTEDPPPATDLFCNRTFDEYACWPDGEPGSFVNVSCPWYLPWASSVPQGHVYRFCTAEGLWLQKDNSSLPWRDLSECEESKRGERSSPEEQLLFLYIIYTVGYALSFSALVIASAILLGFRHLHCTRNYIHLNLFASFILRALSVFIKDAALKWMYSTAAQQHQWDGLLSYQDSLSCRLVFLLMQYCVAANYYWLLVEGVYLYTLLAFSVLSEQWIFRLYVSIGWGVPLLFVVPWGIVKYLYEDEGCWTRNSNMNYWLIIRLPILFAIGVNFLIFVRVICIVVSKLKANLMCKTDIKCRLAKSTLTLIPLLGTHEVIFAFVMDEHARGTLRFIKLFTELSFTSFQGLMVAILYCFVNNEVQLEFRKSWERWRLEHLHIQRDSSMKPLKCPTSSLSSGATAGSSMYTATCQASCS

| SMILES | Soluble amount (physchem) | solubility at 24 h (physchem) | EC50 [1] | Relative purity loss over 28 days at 40° C. [2] | I and SD (Scattering Intensity) ([3]; 0 weeks) | M and SD (Mass Contribution) ([3]; 0 weeks) | apparent Rh and SD ([3]; 0 weeks) | I and SD (Scattering Intensity) ([3]; 4 weeks storage at 40° C.) | M and SD (Mass Contribution) ([3]; 4 weeks storage at 40° C.) | apparent Rh and SD ([3]; 4 weeks storage at 40° C.) |
| --- | --- | --- | --- | --- | --- | --- | --- | --- | --- | --- |
| CC[C@H](C)[C@H](NC(=O)[C@H](CCCNC(=N)N)NC(=O)[C@H](CC(=O)O)NC(=O)[C@H](CCCCNC(=O)CN(C)C(=O)CN(C)C(=O)CN(C)C(=O)CC[C@H](NC(=O)CCCCCCCCCCCCCCCCC(=O)O)C(=O)O)NC(=O)C(C)(C)NC(=O)[C@@H](NC(=O)[C@H](CO)NC(=O)[C@H](CC(C)C)NC(=O)[C@H](CC(=O)O)NC(=O)[C@H](CO)NC(=O)[C@@H](NC(=O)[C@H](Cc1ccccc1)NC(=O)[C@@H](NC(=O)CNC(=O)[C@H](CCC(=O)O)NC(=O)C(C)(C)NC(=O)[C@@H](N)Cc1ccc(O)cc1)[C@@H](C)O)[C@@H](C)CC)[C@@H](C)CC)C(=O)N[C@@H](Cc1c[nH]cn1)C(=O)N[C@@H](CCC(N)=O)C(=O)NC(C)(C)C(=O)N[C@@H](CCC(=O)O)C(=O)N[C@@H](Cc1ccccc1)C(=O)N[C@H](C(=O)N[C@@H](CCC(=O)O)C(=O)N[C@@H](Cc1c[nH]c2ccccc12)C(=O)N[C@@H](CC(C)C)C(=O)N[C@@H](CC(C)C)C(=O)N[C@@H](C)C(=O)N[C@@H](CCC(N)=O)C(=O)NCC(=O)N1CCC[C@H]1C(=O)N[C@@H](CO)C(=O)N[C@@H](CO)C(=O)NCC(=O)N[C@@H](C)C(=O)N1CCC[C@H]1C(=O)N1CCC[C@H]1C(=O)N1CCC[C@H]1C(=O)N[C@@H](CO)C(N)=O)[C@@H](C)CC [SEQ ID NO: 6, H2N-Y-Aib-E-G-T-F-I-S-D-I-S-I-Aib-K[{N-MeGly}3-gGlu-C18OH]-D-R-I-H-Q-Aib-E-F-I-E-W-I-L-A-Q-G-P-S-S-G-A-P-P-P-S-NH2] (H-Y[Aib]EGTFISDLSI[Aib]K([Sar-Sar-Sar-γGlu-C18 diacid])DRIHQ[Aib]EFIEWLLAQGPSSGAPPPS-NH2) | >8.9 mg/mL | > 10800 µg/mL | > 10 nM | 5.4% | 86 ± 2% | 100 ± 0% | 1.92 ± 0.03 nm | 83 ± 1% | 100 ± 0% | 1.94 ± 0.03 nm |
| CC[C@H](C)[C@H](NC(=O)[C@H](CCCNC(=N)N)NC(=O)[C@H](CC(=O)O)NC(=O)[C@H](CCCCNC(=O)CNC(=O)CNC(=O)CNC(=O)CC[C@H](NC(=O)CCCCCCCCCCCCCCCCC(=O)O)C(=O)O)NC(=O)C(C)(C)NC(=O)[C@@H](NC(=O)[C@H](CO)NC(=O)[C@H](CC(C)C)NC(=O)[C@H](CC(=O)O)NC(=O)[C@H](CO)NC(=O)[C@@H](NC(=O)[C@H](Cc1ccccc1)NC(=O)[C@@H](NC(=O)CNC(=O)[C@H](CCC(=O)O)NC(=O)C(C)(C)NC(=O)[C@@H](N)Cc1ccc(O)cc1)[C@@H](C)O)[C@@H](C)CC)[C@@H](C)CC)C(=O)N[C@@H](Cc1c[nH]cn1)C(=O)N[C@@H](CCC(N)=O)C(=O)NC(C)(C)C(=O)N[C@@H](CCC(=O)O)C(=O)N[C@@H](Cc1ccccc1)C(=O)N[C@H](C(=O)N[C@@H](CCC(=O)O)C(=O)N[C@@H](Cc1c[nH]c2ccccc12)C(=O)N[C@@H](CC(C)C)C(=O)N[C@@H](CC(C)C)C(=O)N[C@@H](C)C(=O)N[C@@H](CCC(N)=O)C(=O)NCC(=O)N1CCC[C@H]1C(=O)N[C@@H](CO)C(=O)N[C@@H](CO)C(=O)NCC(=O)N[C@@H](C)C(=O)N1CCC[C@H]1C(=O)N1CCC[C@H]1C(=O)N1CCC[C@H]1C(=O)N[C@@H](CO)C(N)=O)[C@@H](C)CC [SEQ ID NO: 5, H2N-Y-Aib-E-G-T-F-I-S-D-I-S-I-Aib-K[{Gly}3-gGlu-C18OH]-D-R-I-H-Q-Aib-E-F-I-E-W-I-L-A-Q-G-P-S-S-G-A-P-P-P-S-NH2] (H-Y[Aib]EGTFISDLSI[Aib]K([Gly-Gly-Gly-γGlu-C18 diacid])DRIHQ[Aib]EFIEWLLAQGPSSGAPPPS-NH2) | >8.3 mg/mL | > 9300 µg/mL | > 10 nM | 5.8% | 76 ± 2% | 100 ± 0% | 2.05 ± 0.04 nm | 89 ± 3% | 100 ± 0% | 1.99 ± 0.03 nm |
| CC[C@H](C)[C@H](NC(=O)[C@H](Cc1ccccc1)NC(=O)[C@H](CCC(=O)O)NC(=O)[C@H](CCC(=O)O)NC(=O)[C@H](CCC(N)=O)NC(=O)[C@H](Cc1c[nH]cn1)NC(=O)[C@@H](NC(=O)[C@H](CCCNC(=N)N)NC(=O)[C@H](CC(=O)O)NC(=O)[C@H](CCCCNC(=O)COCCOCCNC(=O)COCCOCCNC(=O)CC[C@H](NC(=O)CCCCCCCCCCCCCCCCC(=O)O)C(=O)O)NC(=O)C(C)(C)NC(=O)[C@@H](NC(=O)[C@H](CO)NC(=O)[C@H](CC(C)C)NC(=O)[C@H](CC(=O)O)NC(=O)[C@H](CO)NC(=O)[C@@H](NC(=O)[C@H](Cc1ccccc1)NC(=O)[C@@H](NC(=O)CNC(=O)[C@H](CCC(=O)O)NC(=O)C(C)(C)NC(=O)[C@@H](N)Cc1ccc(O)cc1)[C@@H](C)O)[C@@H](C)CC)[C@@H](C)CC)[C@@H](C)CC)C(=O)N[C@@H](CCC(=O)O)C(=O)N[C@@H](Cc1c[nH]c2ccccc12)C(=O)N[C@@H](CC(C)C)C(=O)N[C@@H](CC(C)C)C(=O)N[C@@H](C)C(=O)N[C@@H](CCC(N)=O)C(=O)NCC(=O)N1CCC[C@H]1C(=O)N[C@@H](CO)C(=O)N[C@@H](CO)C(=O)NCC(=O)N[C@@H](C)C(=O)N1CCC[C@H]1C(=O)N1CCC[C@H]1C(=O)N1CCC[C@H]1C(=O)N[C@@H](CO)C(=O)O [SEQ ID NO: 11, H2N-Y-Aib-E-G-T-F-I-S-D-I-S-I-Aib-K[{AEEA}2-gGlu-C18OH]-DRIHQEEFIEWILAQGPSSGAPPPS-OH] (H-Y[Aib]EGTFISDLSI[Aib]K([AEEA-AEEA-γGlu-C18 diacid])DRIHQEEFIEWLLAQGPSSGAPPPS-OH) | >9.8 mg/mL | > 9800 µg/mL | > 10 nM | 6.1% | 96 ± 1% | 100 ± 0% | 1.82 ± 0.04 nm | 85 ± 2% | 100 ± 0% | 1.83 ± 0.05 nm |
